From US20100196355A1, “Immunophilin Ligands and Methods for Modulating Immunophilin and Calcium Channel Activity” (Wyeth, priority 2007, published 2010)

Tests used:
[1] = test system: rat cortical neuron cultures; test: Transcriptional profiling of cortical neuron cultures; format: cell-based; settings: 10 μM
Experimental: Cortical neuron cultures were prepared from E16 rat embryos. After plating for 24 hrs, cultures were treated with 10 μM immunophilin ligands and the corresponding vehicle. After treatment for 4 hrs, 12 hrs, 24 hrs and 48 hrs, cells were lysed. Total RNA from each sample was extracted with the RNEASY® Mini Kit (QIAGEN®). Double stranded cDNA was synthesized from 2 μg of each RNA sample using the […]® System (INVITROGEN®), purified, transcribed in vitro to prepare biotinylated cRNA using T7 RNA polymerase in the presence of biotin labeled UTP and CTP. The fragmented cRNAs were hybridized to a Rat Genome 230 2.0 […]® (AFFYMETRIX®, Santa Clara, Calif.) as recommended by the manufacturer. Hybridized arrays were stained according to manufacture protocols on a Fluidics Station 450 and subsequently scanned on an AFFYMETRIX® scanner 3000. The raw data was generated using AFFYMETRIX® MAS 5.0 Software. Transcriptional profiling data were analyzed in Ingenuity.

His6-tagged FKBP52 = molecular target: T1, His6-tagged FKBP52 (Homo sapiens, UniProt Q02790); test: [3H]-FK506 binding on Ni-chelated FLASH plate
T1 construct: made in house
T1 sequence (Q02790 1-459): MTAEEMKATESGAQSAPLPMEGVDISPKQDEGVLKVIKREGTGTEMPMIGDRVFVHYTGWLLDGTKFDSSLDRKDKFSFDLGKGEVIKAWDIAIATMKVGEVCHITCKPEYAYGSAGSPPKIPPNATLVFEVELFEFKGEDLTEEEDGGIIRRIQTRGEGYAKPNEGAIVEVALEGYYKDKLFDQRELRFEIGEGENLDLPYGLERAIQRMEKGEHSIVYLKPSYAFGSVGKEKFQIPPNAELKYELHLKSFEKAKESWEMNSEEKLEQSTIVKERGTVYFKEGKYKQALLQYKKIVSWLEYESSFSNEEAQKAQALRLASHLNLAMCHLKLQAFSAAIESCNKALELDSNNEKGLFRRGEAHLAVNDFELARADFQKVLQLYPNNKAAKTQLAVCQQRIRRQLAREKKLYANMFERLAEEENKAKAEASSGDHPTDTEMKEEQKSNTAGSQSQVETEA
Experimental: Reactions were carried out in triplicate at 25° C. for 30 min. Kd were calculated using methods described by Carreras (Anal. Biochem. 298, 57-61 (2001)).

In the case of `CO[C@H]1C[C@@H]2CC[C@@H](C)[C@@](O)(O2)C(=O)C(=O)N2CCCCC2C(=O)O[C@H]([C@H](C)C[C@@H]2CC[C@@H](O)[C@H](OC)C2)CC(=O)[C@H](C)/C=C(\C)[C@@H](O)[C@@H](OC)C(=O)[C@H](C)C[C@H](C)C2CC[C@H](/C=C/1C)ON2c1ccccc1` (stereo partly drawn) [Rapamycin analogue II, 9,27-dihydroxy-3-{2-[4-hydroxy-3-methoxycyclohexyl]-1-methylethyl}-10,21-dimethoxy-6,8,12,14,20,26-hexamethyl-37-phenyl-4,9,10,12,13,14,15,16,17,18,21,22,23,24,25,26,27,32,33,34,34a-henicosahydro-3H-23,27-epoxy-18,15-(epoxyimino)pyrido[2,1-c][1,4]oxazacyclohentriacontine-1,5,11,28,29(6H, 31H)-pentone], the “fold change vs DMSO, ACTA1” value ([1]; ACTA1) is reported as −1.6 fold, the “fold change vs DMSO, ACTA2” value ([1]; ACTA2) is reported as 1.37 fold and the “fold change vs DMSO, AKAP5” value ([1]; AKAP5) is reported as −1.5 fold. For the same compound, the “fold change vs DMSO, ASPH” value ([1]; ASPH) was −3.27 fold, the “fold change vs DMSO, ATP2A2” value ([1]; ATP2A2) was 2 fold and the “fold change vs DMSO, ATP2B1” value ([1]; ATP2B1) was 1.81 fold. The “fold change vs DMSO, ATP2B3” value ([1]; ATP2B3) was −1.45 fold, the “fold change vs DMSO, ATP2C1” value ([1]; ATP2C1) was −1.32 fold and the “fold change vs DMSO, CABIN1” value ([1]; CABIN1) was 1.34 fold. The “fold change vs DMSO, CACNA1B” value ([1]; CACNA1B) was −1.45 fold, the “fold change vs DMSO, CACNA1C” value ([1]; CACNA1C) was 1.82 fold and the “fold change vs DMSO, CACNA1D” value ([1]; CACNA1D) was −1.28 fold. For the same compound, the “fold change vs DMSO, CACNA2D1” value ([1]; CACNA2D1) was 5.73 fold, the “fold change vs DMSO, CACNB1” value ([1]; CACNB1) was −1.14 fold and the “fold change vs DMSO, CACNG2” value ([1]; CACNG2) was −2 fold. For the same compound, the “fold change vs DMSO, CACNG3” value ([1]; CACNG3) was −2.46 fold, the “fold change vs DMSO, CALM1” value ([1]; CALM1) was −1.63 fold and the “fold change vs DMSO, CALM2” value ([1]; CALM2) was −1.33 fold. The “fold change vs DMSO, CALM3” value ([1]; CALM3) was −1.52 fold, the “fold change vs DMSO, CALR” value ([1]; CALR) was 1.19 fold and the “fold change vs DMSO, CAMK1” value ([1]; CAMK1) was −1.43 fold. The “fold change vs DMSO, CAMK1G” value ([1]; CAMK1G) was −2.26 fold, the “fold change vs DMSO, CAMK2A” value ([1]; CAMK2A) was −4.13 fold and the “fold change vs DMSO, CAMK2B” value ([1]; CAMK2B) was −1.88 fold. The “fold change vs DMSO, CAMK2D” value ([1]; CAMK2D) was −1.48 fold, the “fold change vs DMSO, CAMK4” value ([1]; CAMK4) was −1.33 fold and the “fold change vs DMSO, CHP” value ([1]; CHP) was 1.54 fold. For the same compound, the “fold change vs DMSO, CREBBP” value ([1]; CREBBP) was 5.84 fold, the “fold change vs DMSO, CYP27B1” value ([1]; CYP27B1) was −1.38 fold and the “fold change vs DMSO, DHCR7” value ([1]; DHCR7) was 1.73 fold. For the same compound, the “fold change vs DMSO, DSCR1” value ([1]; DSCR1) was −1.82 fold, the “fold change vs DMSO, DSCR1L1” value ([1]; DSCR1L1) was −4.73 fold and the “fold change vs DMSO, EBP” value ([1]; EBP) was 1.32 fold. The “fold change vs DMSO, FDFT1” value ([1]; FDFT1) was 1.89 fold, the “fold change vs DMSO, FDPS” value ([1]; FDPS) was 2.07 fold and the “fold change vs DMSO, GRIA1” value ([1]; GRIA1) was −2.16 fold. For the same compound, the “fold change vs DMSO, GRIA2” value ([1]; GRIA2) was 2.71 fold, the “fold change vs DMSO, GRIN1” value ([1]; GRIN1) was −2.8 fold and the “fold change vs DMSO, GRIN2B” value ([1]; GRIN2B) was −1.57 fold. For the same compound, the “fold change vs DMSO, GRIN3A” value ([1]; GRIN3A) was −2.94 fold, the “fold change vs DMSO, GRINA” value ([1]; GRINA) was −1.2 fold and the “fold change vs DMSO, HDAC5” value ([1]; HDAC5) was 1.8 fold. For the same compound, the “fold change vs DMSO, HDAC6” value ([1]; HDAC6) was −1.13 fold, the “fold change vs DMSO, HDAC7A” value ([1]; HDAC7A) was 1.27 fold and the “fold change vs DMSO, HMGCR” value ([1]; HMGCR) was 2.26 fold. The “fold change vs DMSO, HTR3A” value ([1]; HTR3A) was −1.64 fold, the “fold change vs DMSO, IDI1” value ([1]; IDI1) was 2.85 fold and the “fold change vs DMSO, ITPR3” value ([1]; ITPR3) was −1.93 fold. For the same compound, the “fold change vs DMSO, LSS” value ([1]; LSS) was 13.19 fold, the “fold change vs DMSO, MAPK1” value ([1]; MAPK1) was 1.38 fold and the “fold change vs DMSO, MAPK3” value ([1]; MAPK3) was −1.19 fold. For the same compound, the “fold change vs DMSO, MVD” value ([1]; MVD) was 1.81 fold, the “fold change vs DMSO, MVK” value ([1]; MVK) was 1.6 fold and the “fold change vs DMSO, MYH1” value ([1]; MYH1) was −2.17 fold. The “fold change vs DMSO, MYH6” value ([1]; MYH6) was −5.93 fold, the “fold change vs DMSO, MYH7” value ([1]; MYH7) was −5.88 fold and the “fold change vs DMSO, MYL6B” value ([1]; MYL6B) was −1.68 fold. For the same compound, the “fold change vs DMSO, NQO1” value ([1]; NQO1) was 1.64 fold, the “fold change vs DMSO, PMVK” value ([1]; PMVK) was 1.25 fold and the “fold change vs DMSO, PPP3CB” value ([1]; PPP3CB) was −1.27 fold. The “fold change vs DMSO, PPP3CC” value ([1]; PPP3CC) was −1.27 fold, the “fold change vs DMSO, PPP3R1” value ([1]; PPP3R1) was −1.44 fold and the “fold change vs DMSO, PRKAG1” value ([1]; PRKAG1) was −1.24 fold. For the same compound, the “fold change vs DMSO, PRKAR1A” value ([1]; PRKAR1A) was −1.1 fold, the “fold change vs DMSO, PRKAR1B” value ([1]; PRKAR1B) was −3.18 fold and the “fold change vs DMSO, PRKAR2A” value ([1]; PRKAR2A) was −1.23 fold. For the same compound, the “fold change vs DMSO, PRKAR2B” value ([1]; PRKAR2B) was −1.5 fold, the “fold change vs DMSO, RAP1B” value ([1]; RAP1B) was −1.33 fold and the “fold change vs DMSO, SC5DL” value ([1]; SC5DL) was 1.94 fold. The “fold change vs DMSO, SQLE” value ([1]; SQLE) was 1.9 fold, the “fold change vs DMSO, TPM1” value ([1]; TPM1) was −2.83 fold and the “fold change vs DMSO, TPM3” value ([1]; TPM3) was −1.99 fold. For the same compound, the “fold change vs DMSO, TRPC1” value ([1]; TRPC1) was −1.08 fold, the “fold change vs DMSO, TRPC3” value ([1]; TRPC3) was −1.95 fold and the “fold change vs DMSO, TRPC4” value ([1]; TRPC4) was −5.42 fold. The “fold change vs DMSO, TRPV6” value ([1]; TRPV6) was 1.73 fold, the “fold change, PLAU” value ([1]; plasminogen activator (PLAU)) was −10 fold and the Kd (His6-tagged FKBP52) was 480 ± 40 pM.
